From PMC3724450 (Nature communications, 2013)

Tested on: HCC4017
Experiment: Cell viability assay, patient matched pair
Conditions: patient matched cancer vs normal lines

COC(=O)CNC(=O)C(=O)OC [D1070, dimethyloxalylglycine]
selectivity for cancer vs. normal patient matched cells: only five-fold selectivity for cancer
